The record followed here is patent publication US20240181068A1, “SELECTIVE NEUTRAL PH INHIBITOR OF CATHEPSIN B” (The Regents of the University of California, priority 2021, published 2024).

Broadly, the IC50 is the concentration at which inhibition is half-maximal. Higher therefore signals lower potency. Usually inhibition stands for the relative decrease from the control value, in per cent. Low readings indicate a response near the control, high ones a response far below the control. In general, kinact/KI refers to the maximal inactivation rate divided by the concentration that gives half of it.

The target in data set [1] is T1, cathepsin H (Homo sapiens, UniProt P09668).
T1 construct: purchased R&D Systems 75116-CY-010
Nature of the data set: Specificity of inhibitors: cathepsin H (Arg-AMC substrate). It counts as biochemical. The method, then: (§1) Specificity of inhibitors for other cysteine cathepsin proteases. The effects of Z-Arg-Lys-AOMK and Z-Glu-Lys-AOMK on cathepsin V, L, K, S, X, H and C activities were assessed. IC50 values were calculated at pH 4.6 and pH 7.2 conditions, consisting of 40 mM citrate phosphate, 1 mM EDTA, 100 mM NaCl, and 5 mM DTT. The inhibitor concentrations ranged from 16.38 μM to 256 nM with 2-fold serial dilutions. […] Cathepsin V (0.04 ng/μL), cathepsin L (0.03 ng/μL), cathepsin K (0.10 ng/μL), cathepsin S (0.20 ng/uL) were assayed with 40 μM Z-Phe-Arg-AMC. Cathepsin X (0.20 ng/uL), cathepsin C (0.51 ng/uL) and cathepsin H (0.1 ng/μL) were assayed with 40 μM of MCA-Arg-Pro-Pro-Gly-Phe-Ser-Ala-Phe-Lys(Dnp)OH (SEQ ID NO: 2), Gly-Arg-AMC, and Arg-AMC, respectively. Activation of pro-cathepsin H to cathepsin H was conducted by incubation of cathepsin H (4.4 ng/μL) with cathepsin L (1.1 ng/μL) at RT for 2 hrs in activation buffer (20 mM citrate phosphate pH 6.0, 100 mM NaCl, and 5 mM DTT). Cathepsin C (13.78 ng/μL) was activated by incubation with cathepsin L (3.4 ng/μL) at RT for one hr in activation buffer (20 mM citrate phosphate, pH 6.0, 100 mM NaCl, 5 mM DTT). […] For all assays containing peptide-AMC substrates the fluorescent microplate reader settings were the same as outlined above for cathepsin B. For the cathepsin X assay, the plate reader was set to excitation 320 nm, emission 400 nm, gain 105, top optics and read height 1 mm. To convert RFU/s to picomol/min, 10 μM to 0.005 μM (2-fold serial dilution) of MCA-Arg-Pro-Pro-Gly-Phe-Ser-Ala-Phe-Lys(Dnp)OH (SEQ ID NO: 2) was fully hydrolyzed with excess cathepsin X and a standard curve was generated using the total fluorescence values calculated at each concentration.

For data set [2], the target named is T2, cathepsin B in human neuroblastoma cells (SHSY5Y) (Homo sapiens, UniProt P07858).
T2 construct: endogenous in cells; host or cells: SH-SY5Y human neuroblastoma cells
Briefly: Neuroblastoma cells incubated with inhibitors, then cathepsin B assay. It counts as cell-based. As to the method:
Cathepsin B in human neuroblastoma cells treated with inhibitors. Neuroblastoma cells (human SHSY5Y) were grown in media consisting of 50% MEMalpha, 50% F12-K, 10% heat-inactivated FBS at 37° C. in an atmosphere of 95% air and 5% CO2. Firstly, cell homogenates were prepared by collection of cells in 0.32 M sucrose and freeze-thawing. Secondly, cells were incubated with Z-Arg-Lys-AOMK or CA-074Me for 6 hours at 37° C., and washed 3 times in phosphate-buffered saline and homogenates were prepared in 0.32 M sucrose with freeze-thawing. CA-074Me is a methyl ester form of the active CA-074 selective inhibitor of cathepsin B (70); CA-074Me penetrates the cell and is converted by intracellular esterases to CA-074.
Cathepsin B activity in the homogenates were monitored with Z-Arg-Arg-AMC substrate (60 μM) with buffer conditions of 40 mM citrate-phosphate, pH 5.5, 5 mM DTT, 1 mM EDTA, 100 mM NaCl, and 1.2% DMSO, followed by incubation at 37° C. for 30 minutes and reading of AMC fluorescence. CA-074-senstive activity was monitored to indicate cathepsin B activity, since CA-074 is a selective inhibitor of this enzyme (70). Protein content was measured in homogenates with the DC protein assay kit. Cathepsin B specific activity was calculated as nmol AMC/μg/min, and reported as the mean±SD (with analyses for statistical significance, p<0.05 by student's t-test).

Data set [3] deals with T3, cathepsin B (Homo sapiens, UniProt P07858).
T3 construct: purchased R&D Systems 953-CY-010
Nature of the data set: Cathepsin B inhibitor kinetic characterization, fluorogenic assay with Z-Phe-Arg-AMC. It counts as biochemical. To be noted: for reduction of cathepsin B activity: 64 nM inhibitor; for kinact/KI / Ki / IC50: cathepsin B. As to the method: Inhibitor kinetic characterization using fluorogenic assays for cathepsin B activity. Kinetic analyses of IC50, K1, kobs, and kinact/K1 values for Z-Arg-Lys-AOMK and Z-Glu-Lys-AOMK inhibition of cathepsin B were conducted by fluorogenic proteolytic assays consisting of 40 μM Z-Phe-Arg-AMC, 40 mM citrate phosphate at pH 7.2 or pH 4.6, 1 mM EDTA, 100 mM NaCl, 5 mM DTT, and 0.01% Tween 20; assays were performed at room temperature (22-27° C.) in quadruplicate. Inhibitor and substrate were combined in the reaction well, and the assay was started upon addition of cathepsin B (0.04 ng/μL). The inhibitor concentration ranged from 5.5 μM to 1.1 nM (1.5-fold serial dilution). A vehicle control assay contained 2% DMSO instead of inhibitor. Enzyme velocity (RFU/sec) was measured during a […] incubation period as relative fluorescent units per sec (RFU/s), calculated using the highest slope recorded for 10 consecutive readings taken at 46 sec intervals (thus, activity is calculated over a total of 460 sec). Prism software was used to analyze enzyme activity data in kinetic studies. IC50 values were calculated (without preincubation of inhibitor and enzyme) as the concentration of inhibitor that reduced cathepsin B activity by 50%.
For determination of K1 and kinact/K1 kinetic inhibition constants, kobs constants were determined by plots of cathepsin B activity in time courses with different inhibitor concentrations by curve fitting slope data of RFU versus time into Y=Y0*e^(−kobs*^X), where Y0 is the activity for the control with no inhibitor condition, Y is the activity in the presence of inhibitor, X is time. K1 and kinact values were calculated from curve fitting the kobs values into the equation kobs=kinact*[I]/(K1+[I]), where [I] is inhibitor concentration, and K1 is the x-axis inhibitor concentration where y=kinact/2 and kinact is the maximum rate of inactivation at saturating inhibitor concentrations (93, 94). These kinetic analyses are for irreversible inhibitors, Z-Arg-Lys-AOMK and Z-Glu-Lys-AOMK of this study, that utilize Ki values, rather than Ki values used for reversible inhibitors (93).

Data set [4] addresses T4, cathepsin S (Homo sapiens, UniProt P25774).
T4 construct: purchased R&D Systems 1183-CY-010
Nature of the data set: Specificity of inhibitors: cathepsin S (Z-Phe-Arg-AMC substrate). It counts as biochemical. As to the method: as §1

The structures appear in SMILES notation. Some results are limits rather than exact numbers.

T1 sequence (P09668 116-335 limits assumed, other chains not shown): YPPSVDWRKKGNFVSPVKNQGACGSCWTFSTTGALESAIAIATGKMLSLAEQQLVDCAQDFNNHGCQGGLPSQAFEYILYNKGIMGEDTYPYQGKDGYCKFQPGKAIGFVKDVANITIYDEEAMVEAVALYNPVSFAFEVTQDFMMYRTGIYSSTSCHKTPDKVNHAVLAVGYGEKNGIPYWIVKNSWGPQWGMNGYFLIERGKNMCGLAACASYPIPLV
T4 sequence (P25774 115-331): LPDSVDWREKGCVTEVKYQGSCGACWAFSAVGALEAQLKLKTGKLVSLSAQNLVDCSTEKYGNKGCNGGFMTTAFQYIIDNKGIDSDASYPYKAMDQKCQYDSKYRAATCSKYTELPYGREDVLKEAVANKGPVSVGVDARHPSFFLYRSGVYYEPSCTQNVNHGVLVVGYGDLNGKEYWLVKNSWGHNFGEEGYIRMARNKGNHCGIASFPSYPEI

`Cc1cccc(C)c1C(=O)OCC(=O)C(CCCCN)NC(=O)C(CCCNC(=N)N)NC(=O)OCc1ccccc1` (stereo not drawn) [Z-Arg-Lys-AOMK]: the IC50 was above 16000 nM in data set [1] (cathepsin H, pH 4.6); above 16000 nM in data set [1] (cathepsin H, pH 7.2); 1500 nM in data set [3] (pH 4.6, without preincubation); 22 nM in data set [3] (pH 6.8 (data not shown)); 20 nM in data set [3] (pH 7.2, without preincubation); above 16000 nM in data set [4] (cathepsin S, pH 4.6). Further, the inhibition at 16 µM in data set [1] (cathepsin H, pH 7.2, 16,000 nM inhibitor) came out at 29%; in data set [4] (cathepsin S, pH 4.6, 16,000 nM inhibitor), 13%. The “inhibition of cathepsin H” value in data set [1] (pH 4.6, inhibitor at 16 μM) was “no inhibition”; in data set [1] (pH 7.2, inhibitor at 16 μM), “minimally inhibited”. For the same compound, in data set [2] (cells incubated with 50 μM inhibitor for 6 hrs, washed, homogenate assayed with Z-Arg-Arg-AMC), the “inhibition of cellular cathepsin B activity” value is given as “completely inhibited”. Besides, the cell permeability result in data set [2] (neuroblastoma cells, 50 μM, 6 hrs) is on record as “cell permeable”. Also, the “reduction of cathepsin B activity” value in data set [3] (pH 4.6, Z-Phe-Arg-AMC substrate) is recorded as 5%; in data set [3] (pH 7.2, Z-Phe-Arg-AMC substrate), 93%. The second-order inactivation constant (kinact/KI) is 1800 M⁻¹ s⁻¹ in data set [3] (pH 4.6) and 110000 M⁻¹ s⁻¹ in data set [3] (pH 7.2). Moreover, the Ki worked out at 15000 nM in data set [3] (pH 4.6, irreversible inhibitor) and 130 nM in data set [3] (pH 7.2, irreversible inhibitor). Besides, the “inhibition of cathepsin S” value in data set [4] (pH 4.6, inhibitor at 16 μM) is on record as “minimal inhibition”. Besides, the “fold more potent for cathepsin B than cathepsin S” value in data set [4] (pH 7.2, from IC50) amounted to 110 fold.
